Test results from US9540620B2, “Methods and compositions for modulating G-alpha-Q signaling” (The University of North Carolina at Chapel Hill, priority 2012, dated 2017).
Entries after “also recorded” stand apart in the source; their conditions may differ. Ends that are not written are not given here. Peptide text beside a SMILES is read from it. * marks the point of attachment. X1 = CN(C)c1ccc2c(-c3ccc(C(=O)*)cc3C(=O)[O-])c3ccc(=[N+](C)C)cc-3oc2c1

Legend:
[1] = target: T1, Gαq activated with aluminum fluoride (Homo sapiens, UniProt P50148); assay: Fluorescence polarization binding of TAMRA-labeled PLC-β3 HTH peptides to Gαq; conditions: Gαq-GDP without added aluminum fluoride
T1 sequence (P50148 1-359): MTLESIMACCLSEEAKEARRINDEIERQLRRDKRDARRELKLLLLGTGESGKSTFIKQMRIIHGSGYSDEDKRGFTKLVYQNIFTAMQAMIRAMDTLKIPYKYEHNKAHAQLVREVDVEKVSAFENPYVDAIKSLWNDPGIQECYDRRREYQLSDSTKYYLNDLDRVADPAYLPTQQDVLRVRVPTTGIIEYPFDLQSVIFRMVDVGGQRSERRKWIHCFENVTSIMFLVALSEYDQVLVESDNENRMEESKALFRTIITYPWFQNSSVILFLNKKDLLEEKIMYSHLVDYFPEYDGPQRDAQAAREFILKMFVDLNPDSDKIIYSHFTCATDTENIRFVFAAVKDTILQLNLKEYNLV
Experimental: (§1) FIGS. 6A-C. Quantification of Gαq binding to peptides corresponding to the HTH of PLβ3. […] The structures of PLCβ3 (3 OHM) and p63RhoGEF (2RGN) bound to Gαq were superimposed and a single Gαq is shown. Immediately below is shown the sequence alignment of PLCβ3 (SEQ ID NO:37) and p63RhoGEF (SEQ ID NO:41) encompassing the helix-turn-helix. Underlined residues are labeled in the structure. […] (FIG. 6C) Increasing concentrations of unlabeled PLC-β3 were added to a solution of labeled 25-mer (400 nM) and Gαq (4 μM). KD and IC50 values were derived from three independent experiments.

activated Gαs = activated Gαs (Homo sapiens, UniProt P63092); assay: Fluorescence polarization binding of TAMRA-labeled peptide to activated Gαs
Chain of activated Gαs (P63092 whole entry): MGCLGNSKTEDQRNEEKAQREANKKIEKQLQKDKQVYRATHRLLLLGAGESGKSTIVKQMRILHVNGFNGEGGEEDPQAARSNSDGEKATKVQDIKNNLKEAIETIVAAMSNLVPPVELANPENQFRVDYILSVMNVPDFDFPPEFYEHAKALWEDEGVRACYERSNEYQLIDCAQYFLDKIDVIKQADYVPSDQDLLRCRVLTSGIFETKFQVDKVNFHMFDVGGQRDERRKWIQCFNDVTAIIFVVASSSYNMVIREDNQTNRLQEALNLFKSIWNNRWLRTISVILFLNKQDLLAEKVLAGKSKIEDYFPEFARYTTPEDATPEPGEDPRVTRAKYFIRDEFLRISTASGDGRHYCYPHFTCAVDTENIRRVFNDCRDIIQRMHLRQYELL

activated GαI = assay: Fluorescence polarization binding of TAMRA-labeled peptide to activated Gαi
activated Gαo = activated Gαo (Homo sapiens, UniProt P09471); assay: Fluorescence polarization binding of TAMRA-labeled peptide to activated Gαo
Chain of activated Gαo (P09471 whole entry): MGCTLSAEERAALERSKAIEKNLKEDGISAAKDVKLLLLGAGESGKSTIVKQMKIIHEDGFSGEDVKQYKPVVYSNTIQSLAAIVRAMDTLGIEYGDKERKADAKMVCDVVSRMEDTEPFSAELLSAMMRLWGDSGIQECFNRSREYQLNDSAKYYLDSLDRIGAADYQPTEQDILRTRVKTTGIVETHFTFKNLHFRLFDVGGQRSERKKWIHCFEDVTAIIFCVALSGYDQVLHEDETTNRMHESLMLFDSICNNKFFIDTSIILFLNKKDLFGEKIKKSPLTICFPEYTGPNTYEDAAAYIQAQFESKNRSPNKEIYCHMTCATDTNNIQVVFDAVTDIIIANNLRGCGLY

[2] = tested on: G-alpha-q mediated activation of PLC-beta; assay: 5HT2A/DOI-stimulated [3H]inositol phosphate accumulation in transiently transfected HEK293 cells; assay type: cell-based; conditions: DOI 1-2 microMolar (FIG. 10)
Experimental: FIG. 10. […] HEK293 cells transfected with 100 ng of 5HT2A and stimulated with 1-2 microMolar of DOI (Synonym: (±)-DOI, (±)-1-(2,5-Dimethoxy-4-iodophenyl)-2-aminopropane hydrochloride, (±)-2,5-Dimethoxy-4-iodoamphetamine hydrochloride) were assayed for [^3H]inositol phosphate accumulation. The control for no DOI stimulation for the CFP-HTH-YFP sample is shown as dashed line (A) and triangle (B). Where indicated HEK293 cells were transfected with varying amounts of PLC constructs.
This experiment is a proof of principle to inhibit G-alpha-q with adeno-associated virus (AAV) to treat uveal melanoma patients. Future experiments will use a retrovirus containing the 27 residue helix-turn-helix in primary uveal melanoma cells to induce apoptosis and inhibit the progression of the uveal melanoma.
The 27mer construct used is between two fluorescent proteins YFP and CFP yielding: YFP-HTH(27mer)-CFP. The 27mer sequence is
A CaaX box was attached to the YFP-HTH(27mer)-CFP to keep this molecule at the membrane. The CaaX box sequence is at the very C-terminal end and are the residues CAIL (SEQ ID NO:36).

Gαq/i = assay: Fluorescence polarization assay in 384 well plates, competition with TAMRA-27-mer; assay type: binding; conditions: 30 μM, 200 nM TAMRA-27-mer, 1.5 μM Gαq/i
Experimental: FIG. 4. Fluorescence polarization assay in 384 well plates. Each well contains 200 nM TAMRA-27-mer and 1.5 μM Gαq/i. Z′-factor determined using 48 wells+/−aluminum fluoride (AlF4). Unlabeled 27-mer (30 μM) added to an additional 48 wells. Coefficient of variance range between 1 and 4 percent.
To begin to develop a high-throughput format suitable for screening large libraries of compounds, the original fluorescence polarization assay was formatted to use microtiter plates (FIG. 4). The initial reconfiguration to use 384-well plates is highly promising, providing a high dynamic range as defined by the difference in fluorescence polarization of the TAMRA-27-mer in the presence of Gαq-GDP either alone or activated with aluminum fluoride. The high dynamic range combined with low variance produced a Z′-factor of approximately 0.8. An assay with a Z′-factor above 0.5 is generally required for useful high-throughput screening^19; a Z′-factor above 0.8 is generally considered excellent. Moreover, the addition of 30 μM of unlabeled 27-mer competed with the TAMRA-27-mer for binding to Gαq leading to an approximately 50 percent decrease in fluorescence polarization.

Gαq = target: T2, Gαq (Homo sapiens, UniProt P50148); assay: Fluorescence polarization competition: unlabeled PLC-β3 against TAMRA-labeled peptide for Gαq; assay type: binding
T2 sequence (P50148 1-359): T1 sequence (P50148 1-359)
Experimental: FIGS. 3A and 3B. TAMRA-27-mer and PLC-β3 directly compete for Gαq. (FIG. 3A) Increasing concentrations of PLC-β3 were added to a solution of TAMRA-27-mer (400 nM) and Gαq (800 nM). The IC50 value is derived from three independent experiments. (FIG. 3B) Phospholipase activity of PLC-β3 activated by Gαq using lipid vesicles and inhibited by increasing concentrations of TAMRA-27-mer.
as §1
Fluorescence polarization will be used to monitor disruption of complex formation between the 27-mer and active Gαq to identify compounds that directly compete with the complex. It is expected that the majority of these compounds will sit within the canonical effector-binding site of Gαq to prevent the binding of peptide—and by extension, prevent the binding of effectors. However, before using this assay format to identify inhibitors of complex formation it was necessary to insure that peptides corresponding to the HTH of PLC-β3 bound to Gαq. […] These experiments strongly support that peptides corresponding to the HTH of PLC-β3 directly bind to the effector pocket of Gαq and can be used as surrogates of effectors in assays of complex formation with active Gαq.
The most promising peptide consisted of 25 residues (TAMRA-25-mer) spanning the entire HTH and bound to G-alpha-q with appreciable affinity (Kd˜6 microMolar).

CC[C@H](C)[C@H](NC(=O)[C@H](CC(C)C)NC(=O)[C@H](C)NC(=O)[C@H](CCC(=O)O)NC(=O)[C@H](C)NC(=O)[C@H](Cc1ccc(O)cc1)NC(=O)[C@H](CC(=O)O)NC(=O)[C@H](CCC(N)=O)NC(=O)[C@H](Cc1c[nH]cn1)NC(=O)c1ccc(-c2c3ccc(=[N+](C)C)cc-3oc3cc(N(C)C)ccc23)c(C(=O)[O-])c1)C(=O)N[C@@H](CC(N)=O)C(=O)N1CCC[C@H]1C(=O)N[C@H](C(=O)N[C@@H](CCCCN)C(=O)N[C@@H](Cc1c[nH]cn1)C(=O)N[C@H](C(=O)N[C@@H](CO)C(=O)N[C@@H](CC(C)C)C(=O)N[C@@H](CCSC)C(=O)N[C@@H](CC(=O)O)C(=O)N[C@@H](CCC(N)=O)C(=O)N[C@@H](CCCNC(=N)N)C(=O)N[C@@H](C)C(=O)N[C@@H](CCCNC(=N)N)C(=O)N[C@@H](CCC(N)=O)C(=O)N[C@@H](CC(C)C)C(=O)O)C(C)C)[C@@H](C)CC [TAMRA-25-mer] (X1-HQDYAEALINPIKHVSLMDQRARQL-OH; C-terminus assumed)
complex formation with inactive Gαq-GDP / dependence on aluminum fluoride activation [1]: dependent on the activation of G-alpha-q with aluminum fluoride; also recorded: dependent on the activation of Gαq with aluminum fluoride | binding to activated Gαs (activated Gαs): failed to bind; also recorded: neither activated Gαs, GαI, nor Gαo bound the peptide | binding to activated Gαi (activated GαI): failed to bind; also recorded: neither activated Gαs, GαI, nor Gαo bound the peptide | binding to activated Gαo (activated Gαo): failed to bind; also recorded: neither activated Gαs, GαI, nor Gαo bound the peptide

CFP-27mer(I860A)-YFP: 27mer HQDYAEALANPIKHVSLMDQRARQLAA between fluorescent proteins YFP and CFP, C-terminal CaaX box CAIL, expressed by transient transfection (HQDYAEALANPIKHVSLMDQRARQLAACAIL; also: fused between fluorescent proteins YFP and CFP)
inhibition of G-alpha-q signaling after transient transfection [2]: inhibits G-alpha-q mediated activation of PLC-beta | inhibition of G-alpha-q signaling after transient transfection ([2]; listed as 27 residue helix-turn-helix peptide): inhibited G-alpha-q signaling

HQDYAEALANPIKHVSL-Nle-DQRARQLAA [unlabeled 27-mer]
decrease in fluorescence polarization (Gαq/i): approximately 50%

B1: PLC-β3(L859E): mutant full-length PLC-β3 with single substitution L859E in its HTH that does not bind Gαq (protein)
chain: AGAQPGVHALQLEPPTVVETLRRGSKFIKWDEETSSRNLVTLRVDPNGFFLYWTGPNMEVDTLDISSIRDTRTGRYARLPKDPKIREVLGFGGPDARLEEKLMTVVSGPDPVNTVFLNFMAVQDDTAKVWSEELFKLAMNILAQNASRNTFLRKAYTKLKLQVNQDGRIPVKNILKMFSADKKRVETALESCGLKFNRSESIRPDEFSLEIFERFLNKLCLRPDIDKILLEIGAKGKPYLTLEQLMDFINQKQRDPRLNEVLYPPLRPSQARLLIEKYEPNQQFLERDQMSMEGFSRYLGGEENGILPLEALDLSTDMTQPLSAYFINSSHNTYLTAGQLAGTSSVEMYRQALLWGCRCVELDVWKGRPPEEEPFITHGFTMTTEVPLRDVLEAIAETAFKTSPYPVILSFENHVDSAKQQAKMAEYCRSIFGDALLIEPLDKYPLAPGVPLPSPQDLMGRILVKNKKRHRPSAGGPDSAGRKRPLEQSNSALSESSAATEPSSPQLGSPSSDSCPGLSNGEEVGLEKPSLEPQKSLGDEGLNRGPYVLGPADREDEEEDEEEEEQTDPKKPTTDEGTASSEVNATEEMSTLVNYIEPVKFKSFEAARKRNKCFEMSSFVETKAMEQLTKSPMEFVEYNKQQLSRIYPKGTRVDSSNYMPQLFWNVGCQLVALNFQTLDVAMQLNAGVFEYNGRSGYLLKPEFMRRPDKSFDPFTEVIVDGIVANALRVKVISGQFLSDRKVGIYVEVDMFGLPVDTRRKYRTRTSQGNSFNPVWDEEPFDFPKVVLPTLASLRIAAFEEGGKFVGHRILPVSAIRSGYHYVCLRNEANQPLCLPALLIYTEASDYIPDDHQDYAEAEINPIKHVSLMDQRARQLAALIGESEAQAGQETCQDTQSQQLGSQPSSNPTPSPLDASPRRPPGPTTSPASTSLSSPGQRDDLIASILSEVAPTPLDELRGHKALVKLRSRQERDLRELRKKHQRKAVTLTRRLLDGLAQAQAEGRCRLRPGALGGAADVEDTKEGEDEAKRYQEFQNRQVQSLLELREAQVDAEAQRRLEHLRQALQRLREVVLDANTTQFKRLKEMNEREKKELQKILDRKRHNSISEAKMRDKHKKEAELTEINRRHITESVNSIRRLEEAQKQRHDRLVAGQQQVLQQLAEEEPKLLAQLAQECQEQRARLPQEIRRSLLGEMPEGLGDGPLVACASNGHAPGSSGHLSGADSESQEENTQL
competition with the 27-mer for binding to Gαq (Gαq; TAMRA-27-mer 400 nM, Gαq 800 nM): could not compete | effect on TAMRA-25-mer binding to Gαq (Gαq; at concentrations as high as 35 μM): no effect
